Assay results taken from US7192607B2, “Formulations for the prevention or the treatment of diseases affecting mucosae or skin, or for pregnancy prevention, and an applicator for the delivery of topical formulations into mucosal cavities” (Infectio Recherche Inc, priority 2002, dated 2007).

Tests used:
[1] = test system: HSV-1 (strain F); experiment: Electron microscopy of Vero cells infected with HSV-1 (strain F) pretreated with SLS; assay type: cell-based, Herpes simplex virus type-1
Experimental: The appearance of HSV-1 (strain F) pretreated with varying SLS concentrations (50, 75 and 100 μM) for 1 h at 37° C. has been evaluated in Vero cells using electron microscopy. In brief, cells (80–90% confluent) were infected with the virus (approximately 70 PFU/ml in 14 ml) for 48 h at 37° C. in a 5% CO2 atmosphere. Cells were scrapped off from the dishes and resuspended in culture medium. Cells were centrifuged (515× g for 10 min at 4° C.) and the supernatant was decanted and cells were resuspended in approximately 500 μl medium. Cells were transferred in an eppendorf tube and centrifuged at (10,000× g for 5 min at 4° C.). The pellet was resuspended in approximately 200 μl of 20% bovine serum albumin (BSA). Few drops of 25% glutaraldehyde were added to the mixture and samples were immediately put in an ice bath to allow BSA polymerization. The pellet was then cut in 1 mm^3 samples which were then fixed in 2% glutaraldehyde in PBS for 1 h, 1% OsO4 in PBS for 1 h and then with 0.1% tannic acid in PBS for 30 min. Samples were rinsed 3 times in PBS for 5 min between each step. Samples were stained with 2% uranyl acetate in 10% ethanol for 30 min. Samples were dehydrated and embedded in Epon following routine procedures. Sections (approximately 75 nm thickness) were mounted on copper grid (200 mesh). […]

[2] = test system: HSV-2 (strain 22); experiment: Murine intranasal infection model, HSV-2 pretreated with SLS; assay type: in vivo, Balb/c mice
Experimental: The effect of pretreating HSV-2 (strain 22) with SLS on viral infectivity has also been evaluated in a murine intranasal infection model. In brief, female Balb/c mice (Charles River Breeding Laboratories Inc., St-Constant, QC, Canada) 4 weeks-old were used throughout this study. Prior to the infection, HSV-2 (strain 22) was incubated for 1 h at 37° C. with PBS or with different concentrations of SLS (6.25, 25 or 100 μM) to reach a final viral inoculum of 2,000 PFU/20 μl. Mice were slightly anesthetized using Aerrane® (Isoflurane, USP; Janssen, North York, ON, Canada) and viral suspension (20 μl total volume) was applied into the external left nare of mice. Mice were then returned to their cages and survival was evaluated daily.

[3] = test system: HSV-1 (strain F); experiment: Murine cutaneous infection model, HSV-1 pretreated with SLS or DS; assay type: in vivo, hairless mice (SKH1)
Experimental: The effect of pretreating HSV-1 (strain F) with SLS on viral infectivity has also been evaluated in a murine cutaneous infection model. Female hairless mice (SKH1; Charles River Breeding Laboratories Inc., St-Constant, QC, Canada), 5–6 weeks old were used throughout this study. […] Mice were anesthetized by intraperitoneal injection of a mixture containing 70 mg/kg ketamine hydrochloride (Rogarsetic* injection USP; Rogar/STB Inc. Montreal, QC, Canada) and 11.5 mg/kg xylazine (Rompun®; Miles Canada Inc., Etobicoke, ON, Canada). The virus was inoculated on the lateral side of the body in the left lumbar skin area. The skin was scratched six times in a crossed-hatched pattern with a 27-gauge needle held vertically. Viral suspension (50 μl) was deposited onto the scarified area and rubbed for 10 to 15 see with a cotton tipped applicator saturated with EMEM+2% FBS or SLS or DS solutions. The scarified area was protected with a corn cushion which was maintained on the mice body with surgical tape. The porous inner wall of the aperture of the corn cushion was impermeabilized with tissue adhesive prior to use to prevent absorption of the drug. The aperture of the corn cushion was also closed with surgical tape. Mice were then returned to their cages and observed twice daily.
In infected untreated mice, no pathological signs of cutaneous infection were visible during the first four days following infection and only the scarified area remained appearent. On day 5, herpetic skin lesions began to appear in some mice in the form of small vesicles distant from the inoculation site. On day 6, almost all untreated mice developed herpetic skin lesions in the form of a 4–5 mm wide band extending from the spine to the ventral midline of the infected dermatome similar to zoster-like infections. Maximal mean lesion score was observed on day 8. Mean lesion score decreased thereafter from day 11 to day 15 because of spontaneous regression of cutaneous lesions in some mice. […] Of prime importance, all mice infected with the virus pretreated with 100 μM SLS survived the infection (data not shown).

[4] = test system: HSV-2 (333); experiment: Infectivity of HSV-2 (333) pretreated with SLS on Vero cells (PFU); assay type: cell-based, Herpes simplex virus type-2
Experimental: The effect of pretreating different strains of herpes viruses with SLS or DS on their viral infectivities to susceptible cells has been evaluated. In brief, cells were seeded in 24 well-plates (Costar, Montreal, QC, Canada). Prior to infection, the virus was either suspended in culture medium or phosphate buffered saline (PBS), or incubated with different concentrations of SLS in PBS for 1 h at 37° C. At confluency, cells were incubated with viral suspensions by centrifuging the plates (750× g for 45 min at 20° C.) to allow virus adsorption. Virus was removed and cell sheets were then overlaid with 0.5 ml of 0.6% agarose Seaplaque (Marine Colloids, Rockland, Md.) prepared in appropriate culture medium. The plates were incubated for 2 days at 37° C. Cells were then fixed with 10% formaldehyde in PBS for 20 min, washed with deionized water and stained with 0.05% methylene blue. Viral infectivity was evaluated via the determination of Plaque Forming Units (PFU).

[5] = test system: HIV-1 (strain NL4-3); experiment: Infectivity of HIV-1 (strain NL4-3) pretreated with SLS to 1G5 cells (luciferase activity); assay type: cell-based; details: virus pretreated with 500 μM SLS for 1 h at 37° C.; FIG. 3
Experimental: The effect of pretreating HIV-1 (strain NL4-3) with SLS on its infectivity to 1G5 cells, a Jurkat E6-1 derivative that harbors two stably integrated constructs made up of the luciferase gene under the control of the HIV-1SF2 LTR, has been also evaluated. In brief, prior to infection, the virus was incubated with either culture medium or 500 μM SLS for 1 h at 37° C. Cells (1×10^5 cells/well) were then incubated with HIV-1 strain NL4-3 (10 ng of p24) for 2 h at 37° C. under a 5% CO2 atmosphere. Afterwards, cells were washed, resuspended in 200 μl of complete culture medium and transferred in a 96-well flat-bottomed tissue culture plate (Microtest III, Falcon; Becton Dickinson, Lincoln Park, N.J.). After a 48 h incubation time at 37° C., cells were lysed, subject to a freeze-thaw cycle and luciferase activity was monitored using a microplate luminometer (MLX; Dynex Technologies, Chantilly, Va.).

[6] = test system: HIV-1; details: Howett et al., 1999; cited from earlier work
[7] = virus pretreated with 100 μM SLS for 1 h at 37° C.
[8] = viral suspension pretreated with 100 μM SLS

CCCCCCCCCCCCOS(=O)(=O)[O-].[Na+] [SLS, Sodium lauryl sulfate]
cells with empty capsids in the nuclei (electron microscopy) [1, 7]: only a few cells with empty capsids in the nuclei could be detected | appearance of viral particles in infected Vero cells (electron microscopy) ([1]; virus pretreated with 50, 75 and 100 μM SLS for 1 h at 37° C.): No mature nucleocapsid could be observed | mice that survived the infection ([2]; viral inoculum pretreated with 6.25 μM SLS): 67% | mice that survived the infection ([2]; viral inoculum pretreated with 25 μM SLS): 67% | mice that survived the infection [2, 8]: all | signs of illness [2, 8]: did not demonstrate any sign of illness | cutaneous lesions [3, 7]: did not demonstrate any signs of cutaneous lesions | mice that survived the infection ([3]; virus pretreated with 100 μM SLS, data not shown): all | mean lesion score ([3]; virus pretreated with 6.25 and 25 μM SLS for 1 h at 37° C.): did not demonstrate a significant reduction | PFU (% of control) for HSV-2 (333) ([4]; virus pretreated with 6.25 μM SLS for 1 hour at 37° C.): 102.9 ± 23.5 % of control | PFU (% of control) for HSV-2 (333) ([4]; virus pretreated with 12.5 μM SLS for 1 hour at 37° C.): 115.4 ± 17.0 % of control | PFU (% of control) for HSV-2 (333) ([4]; virus pretreated with 25 μM SLS for 1 hour at 37° C.): 72.9 ± 9.1 % of control | PFU (% of control) for HSV-2 (333) ([4]; virus pretreated with 50 μM SLS for 1 hour at 37° C.): 0 % of control | HIV-1 infectivity to 1G5 cells [5]: almost completely inhibited | inactivation of HIV-1 [6]: potent inactivator
